# From patent US20150148234A1, “HERBICIDE-RESISTANT SUNFLOWER PLANTS WITH MULTIPLE HERBICIDE RESISTANT ALLELES OF AHASL1 AND METHODS OF USE” (NIDERA S.A., priority 2013, published 2015)
# Tests used:
# [1] = system: sunflower entry 9-line (GM40 restorer, A122T homo); assay: field phytotoxicity trial North Dakota 2006 (Example 3); type: in vivo
# Experimental: (§1) • Spray volume: 10 gallons per acre (GPA) (or 100 liters/ha) for backpack sprayer or 20 GPA (or 200 liters/ha) for tractor mounted boom • Growth Stage at Herbicide Application: 2-4 leaves • Entry 15 (WT Maintainer line) was left unsprayed in all treatment blocks.
# (§2) Phytotoxicity ratings were assessed at 7 and 21 days following herbicide application.
# (§3) The data was subjected to an ANOVA analysis and the means from the 3 repetitions are presented in Table 7 (phytotoxicity at 7 days post-treatment) and Table 8 (phytotoxicity at 21 days post-treatment).
# [2] = system: sunflower entry 6-hybrid (IMI CMS × IMI restorer, A205V homo); assay: as above; type: in vivo
# Experimental: as §1, §2, §3
# [3] = system: sunflower entry 11-hybrid (GM40 CMS × IMI restorer, A205V/A122T hetero/double); assay: as above; type: in vivo
# Experimental: as §1, §2, §3
# [4] = system: sunflower entry 4-line (IMI Restorer, A205V homo); assay: as above; type: in vivo
# Experimental: as §1, §2, §3
# [5] = system: sunflower entry 15-hybrid (WT × GM40 restorer, A122T hetero); assay: as above; type: in vivo
# Experimental: as §1, §2, §3
# [6] = system: sunflower entry 13-hybrid (GM40 CMS × GM40 restorer, A122T homo); assay: as above; type: in vivo
# Experimental: as §1, §2, §3
# [7] = system: sunflower entry 10-hybrid (IMI CMS × GM40 restorer, A205V/A122T hetero/double); assay: as above; type: in vivo
# Experimental: as §1, §2, §3
# [8] = system: sunflower entry 7-hybrid (WT-CMS × IMI restorer, A205V hetero); assay: as above; type: in vivo
# Experimental: as §1, §2, §3
# [9] = system: sunflower entry 14-hybrid (GM40 CMS × GM40 restorer, A122T homo); assay: as above; type: in vivo
# Experimental: as §1, §2, §3
# [10] = system: sunflower entry 16-hybrid (WT × GM40 restorer, A122T hetero); assay: as above; type: in vivo
# Experimental: as §1, §2, §3
# [11] = system: sunflower entry 3-hybrid (WT × IMI restorer, A205V hetero); assay: as above; type: in vivo
# Experimental: as §1, §2, §3
# [12] = system: sunflower entry 12-hybrid (IMI CMS × GM40 restorer, A205V/A122T hetero/double); assay: as above; type: in vivo
# Experimental: as §1, §2, §3
# [13] = system: sunflower entry 1-hybrid (WT × IMI restorer, A205V hetero); assay: as above; type: in vivo
# Experimental: as §1, §2, §3
# [14] = system: sunflower entry 8-hybrid (WT × GM40 restorer, A122T hetero); assay: as above; type: in vivo
# Experimental: as §1, §2, §3
# [15] = system: AHAS enzyme of A205V homozygous hybrid (IA9 × RHA426); assay: AHAS enzyme activity assay, Set 1; type: biochemical, sunflower; conditions: A205V homozygous hybrids; 100 μM; Set 1 (FIG. 13)
# Experimental: (§4) Twelve greenhouse grown sunflower plants from each of the lines depicted in Table 21 were bulked and subjected to an AHAS enzyme activity assay via the method of Singh et al. (1988) Anal. Biochem. 171:173-179. Each activity assay was repeated twice. Due to the large number of samples, the experiment was split into two sets (Table 21).
# (§5) Young, actively growing leaves, from four week old plantlets, were ground in a mortar and pestle with liquid N2 and extracted with a buffer composed of 100 mM Pyruvate, 200 mM KH2PO4, 20 mM MgCl2, 2 mM thiamine pyrophosphate and […]. Plant extracts were then spun through a 10 mL Zeba™ TM desalt spin column (Pierce #89893) as per the manufacturer's recommendation. The inhibition assay was performed as described by Singh et al. (1988) Anal. Biochem. 171:173-179. Assays were conducted in a 96-well format. Fifty μl of inhibitor was added to each well containing 50 μl of soluble protein extract to give final concentrations of 0.78, 1.56, 3.125, 6.25, 12.5, 25, 50 and 100 μM imazamox or 0.78, 1.56, 3.125, 6.25, 12.5, 25, 50 and 100 μM imazapyr. Zero herbicide controls were also included for each line. Reactions were processed as outlined by Singh et al. (1988) Anal. Biochem. 171:173-179. Absorbance was measured at 530 nm. AHAS activity, expressed as the mean of the absorbance values for each treatment, was presented as a percentage of the mean of the zero-herbicide controls.
# [16] = system: AHAS enzyme of A122T/A205V heterozygous hybrid (IA9 × R733); assay: AHAS enzyme activity assay, Set 1; type: biochemical, sunflower; conditions: 100 μM, Set 1 (FIG. 13)
# Experimental: as §4, §5
# [17] = system: AHAS enzyme of A122T homozygous hybrid (cmsGM40 × R733); assay: AHAS enzyme activity assay, Set 1; type: biochemical, sunflower; conditions: 100 μM, Set 1 (FIG. 13)
# Experimental: as §4, §5
# [18] = 7 DAT, 50 g ai/ha imazamox + 0.25% NIS
# [19] = 7 DAT, 100 g ai/ha imazamox + 0.25% NIS
# [20] = 7 DAT, 200 g ai/ha imazamox + 0.25% NIS
# [21] = 21 DAT, 50 g ai/ha imazamox + 0.25% NIS
# [22] = 21 DAT, 100 g ai/ha imazamox + 0.25% NIS
# [23] = 21 DAT, 200 g ai/ha imazamox + 0.25% NIS
# [24] = 7 DAT, 160 g ai/ha imazapyr + 0.25% NIS
# [25] = 21 DAT, 160 g ai/ha imazapyr + 0.25% NIS
smiles,measurement,setting,value
COCc1cnc(C2=NC(C)(C(C)C)C(=O)N2)c(C(=O)O)c1 (stereo not shown) [imazamox],Phytotoxicity Rating (% Crop Injury),[1]; [18],1.7%
same,Phytotoxicity Rating (% Crop Injury),[1]; [19],5.0%
same,Phytotoxicity Rating (% Crop Injury),[1]; [20],10.0%
same,Phytotoxicity Rating (% Crop Injury),[1]; [21],0.0%
same,Phytotoxicity Rating (% Crop Injury),[1]; [22],0.0%
same,Phytotoxicity Rating (% Crop Injury),[1]; [23],3.3%
same,Phytotoxicity Rating (% Crop Injury),[2]; [18],5.0%
same,Phytotoxicity Rating (% Crop Injury),[2]; [19],8.3%
same,Phytotoxicity Rating (% Crop Injury),[2]; [20],26.7%
same,Phytotoxicity Rating (% Crop Injury),[2]; [21],0.0%
same,Phytotoxicity Rating (% Crop Injury),[2]; [22],3.3%
same,Phytotoxicity Rating (% Crop Injury),[2]; [23],21.7%
same,Phytotoxicity Rating (% Crop Injury),[3]; [18],0.0%
same,Phytotoxicity Rating (% Crop Injury),[3]; [19],3.3%
same,Phytotoxicity Rating (% Crop Injury),[3]; [20],11.7%
same,Phytotoxicity Rating (% Crop Injury),[3]; [21],0.0%
same,Phytotoxicity Rating (% Crop Injury),[3]; [22],0.0%
same,Phytotoxicity Rating (% Crop Injury),[3]; [23],3.3%
same,Phytotoxicity Rating (% Crop Injury),[4]; [18],6.7%
same,Phytotoxicity Rating (% Crop Injury),[4]; [19],6.7%
same,Phytotoxicity Rating (% Crop Injury),[4]; [20],18.3%
same,Phytotoxicity Rating (% Crop Injury),[4]; [21],5.0%
same,Phytotoxicity Rating (% Crop Injury),[4]; [22],6.7%
same,Phytotoxicity Rating (% Crop Injury),[4]; [23],15.0%
same,Phytotoxicity Rating (% Crop Injury),[5]; [18],10.0%
same,Phytotoxicity Rating (% Crop Injury),[5]; [19],11.7%
same,Phytotoxicity Rating (% Crop Injury),[5]; [20],16.7%
same,Phytotoxicity Rating (% Crop Injury),[5]; [21],6.7%
same,Phytotoxicity Rating (% Crop Injury),[5]; [22],11.7%
same,Phytotoxicity Rating (% Crop Injury),[5]; [23],30.0%
same,Phytotoxicity Rating (% Crop Injury),[6]; [18],3.3%
same,Phytotoxicity Rating (% Crop Injury),[6]; [19],5.0%
same,Phytotoxicity Rating (% Crop Injury),[6]; [20],10.0%
same,Phytotoxicity Rating (% Crop Injury),[6]; [21],0.0%
same,Phytotoxicity Rating (% Crop Injury),[6]; [22],1.7%
same,Phytotoxicity Rating (% Crop Injury),[6]; [23],3.3%
same,Phytotoxicity Rating (% Crop Injury),[7]; [18],3.3%
same,Phytotoxicity Rating (% Crop Injury),[7]; [19],3.3%
same,Phytotoxicity Rating (% Crop Injury),[7]; [20],10.0%
same,Phytotoxicity Rating (% Crop Injury),[7]; [21],0.0%
same,Phytotoxicity Rating (% Crop Injury),[7]; [22],0.0%
same,Phytotoxicity Rating (% Crop Injury),[7]; [23],1.7%
same,Phytotoxicity Rating (% Crop Injury),[8]; [18],13.3%
same,Phytotoxicity Rating (% Crop Injury),[8]; [19],43.3%
same,Phytotoxicity Rating (% Crop Injury),[8]; [20],56.7%
same,Phytotoxicity Rating (% Crop Injury),[8]; [21],3.3%
same,Phytotoxicity Rating (% Crop Injury),[8]; [22],40.0%
same,Phytotoxicity Rating (% Crop Injury),[8]; [23],78.3%
same,Phytotoxicity Rating (% Crop Injury),[9]; [18],5.0%
same,Phytotoxicity Rating (% Crop Injury),[9]; [19],6.7%
same,Phytotoxicity Rating (% Crop Injury),[9]; [20],11.7%
same,Phytotoxicity Rating (% Crop Injury),[9]; [21],0.0%
same,Phytotoxicity Rating (% Crop Injury),[9]; [22],3.3%
same,Phytotoxicity Rating (% Crop Injury),[9]; [23],5.0%
same,Phytotoxicity Rating (% Crop Injury),[10]; [18],10.0%
same,Phytotoxicity Rating (% Crop Injury),[10]; [19],15.0%
same,Phytotoxicity Rating (% Crop Injury),[10]; [20],23.3%
same,Phytotoxicity Rating (% Crop Injury),[10]; [21],6.7%
same,Phytotoxicity Rating (% Crop Injury),[10]; [22],16.7%
same,Phytotoxicity Rating (% Crop Injury),[10]; [23],31.7%
same,Phytotoxicity Rating (% Crop Injury),[11]; [18],11.7%
same,Phytotoxicity Rating (% Crop Injury),[11]; [19],46.7%
same,Phytotoxicity Rating (% Crop Injury),[11]; [20],60.0%
same,Phytotoxicity Rating (% Crop Injury),[11]; [21],11.7%
same,Phytotoxicity Rating (% Crop Injury),[11]; [22],46.7%
same,Phytotoxicity Rating (% Crop Injury),[11]; [23],76.7%
same,Phytotoxicity Rating (% Crop Injury),[12]; [18],10.0%
same,Phytotoxicity Rating (% Crop Injury),[12]; [19],10.0%
same,Phytotoxicity Rating (% Crop Injury),[12]; [20],11.7%
same,Phytotoxicity Rating (% Crop Injury),[12]; [21],3.3%
same,Phytotoxicity Rating (% Crop Injury),[12]; [22],3.3%
same,Phytotoxicity Rating (% Crop Injury),[12]; [23],3.3%
same,Phytotoxicity Rating (% Crop Injury),[13]; [18],8.3%
same,Phytotoxicity Rating (% Crop Injury),[13]; [19],35.0%
same,Phytotoxicity Rating (% Crop Injury),[13]; [20],48.3%
same,Phytotoxicity Rating (% Crop Injury),[13]; [21],6.7%
same,Phytotoxicity Rating (% Crop Injury),[13]; [22],25.0%
same,Phytotoxicity Rating (% Crop Injury),[13]; [23],73.3%
same,Phytotoxicity Rating (% Crop Injury),[14]; [18],13.3%
same,Phytotoxicity Rating (% Crop Injury),[14]; [19],13.3%
same,Phytotoxicity Rating (% Crop Injury),[14]; [20],25.0%
same,Phytotoxicity Rating (% Crop Injury),[14]; [21],6.7%
same,Phytotoxicity Rating (% Crop Injury),[14]; [22],11.7%
same,Phytotoxicity Rating (% Crop Injury),[14]; [23],28.3%
same,"AHAS activity, % of untreated control",[15],36%
same,"AHAS activity, % of untreated control",[16],59%
same,"AHAS activity, % of untreated control",[17],69%
CC(C)C1(C)N=C(c2ncccc2C(=O)O)NC1=O (stereo not shown) [imazapyr],Phytotoxicity Rating (% Crop Injury),[1]; [24],8.3%
same,Phytotoxicity Rating (% Crop Injury),[1]; [25],5.0%
same,Phytotoxicity Rating (% Crop Injury),[2]; [24],8.3%
same,Phytotoxicity Rating (% Crop Injury),[2]; [25],3.3%
same,Phytotoxicity Rating (% Crop Injury),[3]; [24],3.3%
same,Phytotoxicity Rating (% Crop Injury),[3]; [25],0.0%
same,Phytotoxicity Rating (% Crop Injury),[4]; [24],11.7%
same,Phytotoxicity Rating (% Crop Injury),[4]; [25],6.7%
same,Phytotoxicity Rating (% Crop Injury),[5]; [24],8.3%
same,Phytotoxicity Rating (% Crop Injury),[5]; [25],21.7%
same,Phytotoxicity Rating (% Crop Injury),[6]; [24],5.0%
same,Phytotoxicity Rating (% Crop Injury),[6]; [25],1.7%
same,Phytotoxicity Rating (% Crop Injury),[7]; [24],3.3%
same,Phytotoxicity Rating (% Crop Injury),[7]; [25],0.0%
same,Phytotoxicity Rating (% Crop Injury),[8]; [24],21.7%
same,Phytotoxicity Rating (% Crop Injury),[8]; [25],36.7%
same,Phytotoxicity Rating (% Crop Injury),[9]; [24],8.3%
same,Phytotoxicity Rating (% Crop Injury),[9]; [25],3.3%
same,Phytotoxicity Rating (% Crop Injury),[10]; [24],10.0%
same,Phytotoxicity Rating (% Crop Injury),[10]; [25],23.3%
same,Phytotoxicity Rating (% Crop Injury),[11]; [24],35.0%
same,Phytotoxicity Rating (% Crop Injury),[11]; [25],43.3%
same,Phytotoxicity Rating (% Crop Injury),[12]; [24],5.0%
same,Phytotoxicity Rating (% Crop Injury),[12]; [25],1.7%
same,Phytotoxicity Rating (% Crop Injury),[13]; [24],16.7%
same,Phytotoxicity Rating (% Crop Injury),[13]; [25],20.0%
same,Phytotoxicity Rating (% Crop Injury),[14]; [24],13.3%
same,Phytotoxicity Rating (% Crop Injury),[14]; [25],11.7%
same,"AHAS activity, % of untreated control",[15],42%
same,"AHAS activity, % of untreated control",[16],60%
same,"AHAS activity, % of untreated control",[17],64%
